These are literature values, as cited in patent publication US20060193908A1, “Extended release formulations of poorly soluble antibiotics” (priority 2004, published 2006).

For this data set the following is noted: USP 27/NF 22 listing.

For the molecule `CC[C@H]1OC(=O)[C@H](C)[C@@H](O[C@H]2C[C@@](C)(OC)[C@@H](O)[C@H](C)O2)[C@H](C)[C@@H](O[C@@H]2O[C@H](C)C[C@H](N(C)C)[C@H]2O)[C@](C)(OC)C[C@@H](C)C(=O)[C@H](C)[C@@H](O)[C@]1(C)O` [clarithromycin, Clarithromycin], the “solubility in water (USP descriptive term)” value is listed as “practically insoluble in water”.
